Test results published in patent US20210221867A1, “Compounds Capable of Binding to Melanocortin 4 Receptor” (Novo Nordisk A/S, priority 2018, published 2021).
Starred links: 1 amine or outer side, 2 acyl side, 3 side chain; linkers in the order of their positions; H or OH if unused. Positions of bridges follow the written chain, without caps; N, C: chain ends. Non-standard residues stand in square brackets, D forms with d. Residues, ends and D or L forms follow the SMILES beside them. dPhe(4-Cl) = N[C@H](Cc1ccc(Cl)cc1)C(=O)O; X1 = NC(N)NCCC[C@@H](N[*:1])C(=O)[*:2]; X3 = NCNCCC[C@@H](N[*:1])C(=O)[*:2]; X2 = NCNCCC[C@H](N[*:1])C(=O)[*:2]; Nle = CCCC[C@H](N)C(=O)O

Legend:
human MC1R [1] = biological target: T1, human MC1R (Homo sapiens, UniProt Q01726); assay: Functional human melanocortin receptor 1 assay (cAMP, HTRF); assay type: cell-based; settings: cAMP induction, BHK cells expressing the human MC1 receptor, 30 min, 25° C.
T1 construct: expressed in transfected cells
Description: (§1) In order to assess the potency of the compounds on human MC1R and human MC4R cAMP signalling was measured.
(§2) cAMP induction was measured by c-AMPdynamic2 assay, HTRF 62AM4PEC system from CisBio for the human MC1R and human MC4R according to the protocol provided by the vendor. BHK cells expressing the human MC1 or MC4 receptor were generated by stable transfection with expression vectors encoding the cDNA of either MC1R or MC4R. In details; 25 μl compound—or standard solution were added in the respective wells.
(§3) Compound was reconstituted in buffer (DMEM w/o phenol red, 10 mM Hepes, lx Glutamine, 0.1% OV-albumin1, 1 mM IBMX) and serially diluted starting at 2 μM, 10-fold seven times. Dilutions were carried out in the same aforementioned buffer to the desired working concentration ranges (2× higher than the final concentration). 25 μl cell solution was then added and allowed to incubate for 30 min while lightly shaking, at 25° C. […] The provided components for the assay were reconstituted according to the CisBio assay protocol “3.1 supplied reagents and preparation procedure” in MilliQ purification system H2O and diluted 1:20 in lysis buffer. 25 μl cAMP-d2 and 25 μl Cryptate conjugate were added to all wells. Plates were centrifuged at 1500 rpm for 30 sec and incubated for 1 h, lightly shaking, at 25° C. in a hotel stacker. The plates were read on Mithras LB 940 provided by Berthold Technologies
(§4) The data were analysed by non-linear regression analysis of binding curves, using the Windows™ program GraphPad™ Prism (GraphPad Software, USA). EC50 is a measure of the potency of a given compound and is defined herein as the half maximal effective concentration of the compound which induces a response (cAMP induction) halfway between the baseline and maximum response value after a fixed reaction time. Data listed as >, indicate that the highest concentration tested had no effect, where “no effect” is defined as the highest compound concentration with agonistic effect 5% of maximal response of the reference compound NDP-alpha-MSH. […]

human MC4R [2] = biological target: T2, human MC4R (Homo sapiens, UniProt P32245); assay: MC4 receptor binding assay (SPA, 125I-NDP-α-MSH); settings: displacement of 125I-NDP-α-MSH, membranes from BHK cells stably expressing the human MC4 receptor, read-out: MC4R binding IC50
T2 construct: expressed in transfected cells
Description: In Vitro ^125I-NDP-α-MSH Binding to Recombinant BHK Cells Stably Expressing the Human MC4 Receptor (SPA Binding Assay).
In order to assess the binding affinity of the selected compounds for the human MC4R, competitive binding assays were performed with radiolabelled NDP-alpha MSH (^125I-NDP-α-MSH) and membranes from BHK cells stably expressing the human MC4 receptor.
(§5) The BHK cell membranes are prepared from frozen or fresh cells that are homogenised in ice cold buffer (20 mM HEPES, 5 mM MgCl2, 1 mg/ml Bacitracin, pH 7.1 and one Complete™ Protease Inhibitor Cocktail Tablet per 25 ml (Catalogue number 05 056 489 001 from Roche-applied-science)) and centrifuged at 25000 g at 4° C. for 10 minutes. The supernatant is discarded, and the pellets are re-suspended in the buffer, and then homogenised and centrifuged two more times. The pellets are pooled, and the final pellet is re-suspended in buffer, aliquoted and subsequently stored at −80° C.
(§6) The SPA Binding assay was performed in 96-well white opaque plates. Each well contained: 0.5 mg PVT-WGA SPA beads, MC4 receptor expressing membrane diluted to give approximately 10% specific tracer binding, 50.000 dpm ^125I-NDP-α-MSH and relevant dilutions of test compound. The final volume in each well was 200 μl. Assay buffer was 25 mM HEPES, pH 7.0, containing 1.5 mM CaCl2, 1 mM MgSO4, 0.21% (w/v) ovalbumin, 1 mM 1,10-Phenanthroline and one Complete™ Protease Inhibitor Cocktail Tablet per 100 ml. Plates were incubated overnight (22-24 hours) at room temperature before counting for 2 minutes per well, using a TopCount NXT scintillation counter. Displacement of radio ligand is measured as reduction in light emission from SPA beads, and IC50 values are calculated by nonlinear regression analysis of sigmoidal dose-response curves in GraphPad Prism (GraphPad Software, La Jolla, Calif., USA).

human MC4R [3] = biological target: T2, human MC4R; assay: Functional human melanocortin receptor 4 assay (cAMP, HTRF); assay type: cell-based; settings: cAMP induction, BHK cells expressing the human MC4 receptor, 30 min, 25° C.
Description: as §1, §2, §3, §4

human MC1R [4] = biological target: T1, human MC1R; assay: MC1 receptor binding assay (SPA, 125I-NDP-α-MSH); settings: displacement of 125I-NDP-α-MSH, membranes from BHK cells stably expressing the human MC1 receptor, read-out: MC1R binding IC50
Description: In Vitro ^125I-NDP-α-MSH Binding to Recombinant BHK Cells Stably Expressing the Human MC1 Receptor (SPA Binding Assay).
In order to assess the binding affinity of the selected compounds for the human MC1R, competitive binding assays were performed with radiolabelled NDP-alpha MSH (^125I-NDP-α-MSH) and membranes from BHK cells stably expressing the human MC1 receptor.
as §5
as §6, with “MC1” for “MC4”

T2 sequence (P32245 whole entry): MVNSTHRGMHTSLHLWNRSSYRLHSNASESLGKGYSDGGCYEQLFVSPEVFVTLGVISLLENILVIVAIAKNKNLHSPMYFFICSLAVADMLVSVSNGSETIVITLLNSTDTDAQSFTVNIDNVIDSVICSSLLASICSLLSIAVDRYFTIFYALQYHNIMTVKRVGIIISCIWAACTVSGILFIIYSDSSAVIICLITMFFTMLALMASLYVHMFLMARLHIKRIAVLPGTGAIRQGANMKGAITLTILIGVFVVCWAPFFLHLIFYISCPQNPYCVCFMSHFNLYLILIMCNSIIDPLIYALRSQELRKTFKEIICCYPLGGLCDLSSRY
T1 sequence (Q01726 whole entry): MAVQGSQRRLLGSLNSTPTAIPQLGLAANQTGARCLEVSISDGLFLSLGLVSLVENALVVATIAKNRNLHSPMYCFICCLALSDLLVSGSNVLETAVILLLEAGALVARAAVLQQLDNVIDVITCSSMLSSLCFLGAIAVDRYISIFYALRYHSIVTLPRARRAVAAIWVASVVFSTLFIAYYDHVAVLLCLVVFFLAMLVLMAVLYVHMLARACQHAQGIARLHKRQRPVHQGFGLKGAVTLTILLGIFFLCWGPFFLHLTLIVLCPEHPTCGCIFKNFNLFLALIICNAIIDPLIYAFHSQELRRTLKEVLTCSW

| EC50 (human MC1R [1]) [nM] | IC50 (human MC4R [2]) [nM] | EC50 (human MC4R [3]) [nM] | IC50 (human MC1R [4]) [nM] | Compound |
| --- | --- | --- | --- | --- |
| 172 | – | – | – | CCCC[C@H](NC(=O)[C@H](CCC(=O)O)NC(=O)[C@@H](CCCNC(=N)N)NC(=O)[C@@H]1CCCN1C(=O)[C@@H]1CCCN1C(=O)[C@@H]1CSSC[C@H](NC(=O)[C@H](CCCNC(=N)N)NC(C)=O)C(=O)N2CCC[C@H]2C(=O)N[C@@H](Cc2c[nH]cn2)C(=O)N[C@H](Cc2ccccc2)C(=O)N[C@@H](Cc2c[nH]cn2)C(=O)N[C@@H](Cc2c[nH]c3ccccc23)C(=O)N1)C(=O)N[C@H](CCCNC(N)N)C(=O)N[C@H](CCCNC(=N)N)C(N)=O [Chem. 5, Ac-Arg-c[Cys-Pro-His-D- Phe-His-Trp-Cys]-Pro- Pro-D-Arg-Glu-Nle-D- Arg-D-Arg-NH2] (Ac-RCPH[dF]HWCPP[dR]E[Nle][X1][dR]-NH2; disulfide 2-8) |
| 126 | 0.35 | 0.32 | 44.1 | CCCC[C@H](NC(=O)[C@H](CCC(=O)O)NC(=O)[C@@H](CCCNC(=N)N)NC(=O)[C@@H]1CCCN1C(=O)[C@@H]1CCCN1C(=O)[C@@H]1CSSC[C@H](NC(=O)[C@H](CCCNC(=N)N)NC(C)=O)C(=O)N2CCC[C@H]2C(=O)N[C@@H](Cc2c[nH]cn2)C(=O)N[C@H](Cc2ccccc2)C(=O)N[C@@H](Cc2c[nH]cn2)C(=O)N[C@@H](Cc2c[nH]c3ccccc23)C(=O)N1)C(=O)N[C@H](CCCNC(N)N)C(=O)N[C@H](CCCNC(=N)N)C(N)=O [Chem. 6, Ac-D-Arg-c[Cys-Pro-His- D-Phe-His-Trp-Cys]-Pro- Pro-D-Arg-Glu-Nle-D- Arg-D-Arg-NH2] (Ac-RCPH[dF]HWCPP[dR]E[Nle][X1][dR]-NH2; disulfide 2-8) |
| – | 0.27 | 0.16 | 138 | CCCC[C@H](NC(=O)[C@H](CCC(=O)O)NC(=O)[C@@H](CCCNC(=N)N)NC(=O)[C@@H]1CCCN1C(=O)[C@@H]1CCCN1C(=O)[C@@H]1CSSC[C@H](NC(C)=O)C(=O)N2CCC[C@H]2C(=O)N[C@@H](Cc2c[nH]cn2)C(=O)N[C@H](Cc2ccccc2)C(=O)N[C@@H](Cc2c[nH]cn2)C(=O)N[C@@H](Cc2c[nH]c3ccccc23)C(=O)N1)C(=O)N[C@H](CCCNC(=N)N)C(=O)N[C@H](CCCNC(=N)N)C(=O)N[C@H](CCCNC(=N)N)C(N)=O [Chem. 16, Ac-c[Cys-Pro-His-D-Phe- His-Trp-Cys]-Pro-Pro-D- Arg-Glu-Nle-D-Arg-D- Arg-D-Arg-NH2] (Ac-CPH[dF]HWCPP[dR]E[Nle][dR][dR][dR]-NH2; disulfide 1-7) |
| – | 0.88 | – | – | CCCC[C@H](NC(=O)[C@H](CCC(=O)O)NC(=O)[C@@H](CCCNC(=N)N)NC(=O)[C@@H]1CCCN1C(=O)[C@@H]1CCCN1C(=O)[C@@H]1CSSC[C@H](NC(C)=O)C(=O)N2CCC[C@H]2C(=O)N[C@@H](Cc2c[nH]cn2)C(=O)N[C@H](Cc2ccccc2)C(=O)N[C@@H](Cc2c[nH]cn2)C(=O)N[C@@H](Cc2c[nH]c3ccccc23)C(=O)N1)C(=O)N[C@@H](CCCNCN)C(=O)N[C@H](CCCNC(=N)N)C(N)=O [Chem. 15, Ac-c[Cys-Pro-His-D-Phe- His-Trp-Cys]-Pro-D- Arg-Glu-Nle-Arg-D-Arg- NH2] (Ac-CPH[dF]HWCPP[dR]E[Nle][X2][dR]-NH2; disulfide 1-7) |
| 179 | 0.39 | 0.19 | 69 | CC(=O)N[C@H](CCCNC(=N)N)C(=O)N[C@H]1CSSC[C@@H](C(=O)N2CCC[C@H]2C(=O)N2CCC[C@H]2C(=O)N[C@H](CCCNC(=N)N)C(=O)N[C@H](CCCNC(=N)N)C(N)=O)NC(=O)[C@H](Cc2c[nH]c3ccccc23)NC(=O)[C@H](Cc2c[nH]cn2)NC(=O)[C@@H](Cc2ccccc2)NC(=O)[C@H](Cc2c[nH]cn2)NC(=O)[C@@H]2CCCN2C1=O [Chem. 18, Ac-D-Arg-c[Cys-Pro-His- D-Phe-His-Trp-Cys]-Pro- Pro-D-Arg-D-Arg-NH2] (Ac-[dR]CPH[dF]HWCPP[dR][dR]-NH2; disulfide 2-8) |
| – | – | – | 172 | CCCC[C@H](NC(=O)[C@H](CCC(=O)O)NC(=O)[C@@H](CCCNC(=N)N)NC(=O)[C@@H]1CCCN1C(=O)[C@@H]1CCCN1C(=O)[C@@H]1CSSC[C@H](NC(C)=O)C(=O)N2CCC[C@H]2C(=O)N[C@@H](Cc2c[nH]cn2)C(=O)N[C@H](Cc2ccc(Cl)cc2)C(=O)N[C@@H](Cc2c[nH]cn2)C(=O)N[C@@H](Cc2c[nH]c3ccccc23)C(=O)N1)C(=O)N[C@H](CCCNCN)C(=O)N[C@H](CCCNC(=N)N)C(N)=O [Chem. 10, Ac-c[Cys-Pro-His-D-Cl- Phe-His-Trp-Cys]-Pro- Pro-D-Arg-Glu-Nle-D- Arg-D-Arg-NH2] (Ac-CPH[dPhe(4-Cl)]HWCPP[dR]E[Nle][X3][dR]-NH2; disulfide 1-7) |
